According to patent US7718808B2, “Thiazole derivatives” (Kyowa Hakko Kirin Co., Ltd., priority 2003, dated 2010):

Molecular target: T1, Rat Adenosine A2A Receptor (Rattus norvegicus, UniProt P30543)
T1 construct: tissue Nippon SLC (animals); host or cells: rat (SD) corpus striatum membrane homogenate
Experiment: Adenosine A2A receptor binding test (3H-CGS21680 binding, rat corpus striatum)
Settings: test compound 10^−7 mol/L, 25° C., 120 minutes, read-out: Rat Adenosine A2A Receptor Binding Inhibition rate (%) (10^−7 mol/L)
Procedure: This test was carried but in a similar manner to a Bruns et al's method (Molecular Pharmacology, Vol. 29, p. 331, 1986).
Corpus striatum of rats (SD rat, by Nippon SLC) was suspended in 50 mL of an ice-cooled 50 mmol/L tris(hydroxymethyl)aminomethane hydrochloride (Tris-HCl) buffer (pH 7.7) using a polytron homogenizer (by Kinematica). The resulting homogenate was centrifuged (48,000×g, 20 minutes), and the resulting precipitate was again suspended by adding the same amount of a 50 mmol/L Tris-HCl buffer, followed by centrifugation under the same condition. The resulting final precipitate was suspended by adding a 50 mmol/L Tris-HCl buffer [containing 10 mmol/L magnesium chloride, adenosine deaminase 0.02 units/mg tissue (by Sigma)] so that the tissue concentration was 5 mg (wet weight)/mL.
To 100 μL of the above purified tissue suspension, were added 80 μL (final concentration […]) of tritium-labeled CGS-21680 {^3H-2-[p-(2-carboxyethyl)phenethylamino]-5′-(N-ethylcarboxamido)-adenosine: 40 curies/mmol; by New England Nuclear [The Journal of Pharmacology and Experimental Therapeutics, Vol. 251, p. 888, 1989]} and 20 μL of a test compound solution (10^−7 mol/L; a solution of a test compound in DMSO was diluted with Tris-HCl buffer). The resulting mixture was allowed to stand at 25° C. for 120 minutes, followed by rapid suction filtration through a glass fiber paper filter (GF/C; by Whatman). The filter was immediately washed three times with 200 μL of an ice-cooled 50 mmol/L Tris-HCl buffer. The glass fiber paper filter was transferred into a vial, Microscinti (by Perkin Elmer) was added thereto, and the radioactivity level was measured with Topcount (by Perkin Elmer).
The inhibition rate of the test compound to the adenosine A2A receptor binding (^3H-CGS21680 binding) was calculated according to the following formula.
Amount of total binding means the ^3H-CGS21680 binding radioactivity content in the absence of the test compound. Amount of non-specific binding means the ^3H-CGS21680 binding radioactivity content in the presence of 100 μmol/L cyclopentyladenosine (CPA; by Sigma). Amount of binding in the presence of test compound means the ^3H-CGS21680 binding radioactivity content in the presence of 10^−7 mol/L of the test compound.

T1 sequence (P30543 whole entry): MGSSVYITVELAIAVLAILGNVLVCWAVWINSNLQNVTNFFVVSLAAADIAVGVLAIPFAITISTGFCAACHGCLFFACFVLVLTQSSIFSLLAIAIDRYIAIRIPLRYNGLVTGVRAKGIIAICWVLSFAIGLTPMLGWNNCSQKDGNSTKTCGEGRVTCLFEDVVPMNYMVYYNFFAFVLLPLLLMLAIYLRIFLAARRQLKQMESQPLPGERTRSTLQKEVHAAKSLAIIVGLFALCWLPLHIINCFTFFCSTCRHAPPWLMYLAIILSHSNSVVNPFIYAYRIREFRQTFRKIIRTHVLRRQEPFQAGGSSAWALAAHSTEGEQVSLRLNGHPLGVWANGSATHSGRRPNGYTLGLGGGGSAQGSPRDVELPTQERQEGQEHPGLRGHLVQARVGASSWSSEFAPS

inhibition at 0.1 µM [%] | Compound
95 | O=C(Nc1nc(-c2ccco2)c(-c2ccncc2)s1)C1CCCCC1 [Compound 4, N-[4-(2-Furyl)-5-(4-pyridyl)thiazol-2-yl]cyclohexanecarboxamide]
100 | O=C(Nc1nc(-c2ccco2)c(-c2ccncc2)s1)c1cccnc1 [Compound 5, N-[4-(2-Furyl)-5-(4-pyridyl)thiazol-2-yl]pyridine-3-carboxamide]
100 | O=C(Nc1nc(-c2ccco2)c(-c2ccncc2)s1)c1ccco1 [Compound 8, N-[4-(2-Furyl)-5-(4-pyridyl)thiazol-2-yl]furan-2-carboxamide]
100 | O=C(Nc1nc(-c2ccco2)c(-c2ccncc2)s1)c1ccoc1 [Compound 9, N-[4-(2-Furyl)-5-(4-pyridyl)thiazol-2-yl]furan-3-carboxamide]

Tested on: not given
Experiment: not given
Settings: not given

melting point [°C] | Compound
183 to 184 | O=C(CN1CCC(N2CCCC2)CC1)Nc1nc(-c2ccco2)c(C(=O)C2CCOCC2)s1 [Compound 551, N-[4-(2-Furyl)-5-(tetrahydropyran-4-ylcarbonyl)thiazol-2-yl]-2-[4-(1-pyrrolidinyl)piperidino]acetamide]
177 to 179 | O=C(CN1CCC(N2CCCCC2)CC1)Nc1nc(-c2ccco2)c(C(=O)C2CCOCC2)s1 [Compound 552, N-[4-(2-Furyl)-5-(tetrahydropyran-4-ylcarbonyl)thiazol-2-yl]-2-(4-piperidinopiperidino)acetamide]
193 to 195 | O=C(CN1CCC(N2CCOCC2)CC1)Nc1nc(-c2ccco2)c(C(=O)C2CCOCC2)s1 [Compound 553, N-[4-(2-Furyl)-5-(tetrahydropyran-4-ylcarbonyl)thiazol-2-yl]-2-(4-morpholinopiperidino)acetamide]
186 to 187 | O=C(CN1CCC2(CC1)OCCO2)Nc1nc(-c2ccco2)c(C(=O)C2CCOCC2)s1 [Compound 554, 2-(1,4-Dioxa-8-azaspiro[4.5]decan-8-yl)-N-[4-(2-furyl)-5-(tetrahydropyran-4-ylcarbonyl)thiazol-2-yl]acetamide]
106 to 112 | CN1CCN(CC(=O)Nc2nc(-c3ccco3)c(C(=O)C3CCOCC3)s2)CC1 [Compound 562, N-[4-(2-Furyl)-5-(tetrahydropyran-4-ylcarbonyl)thiazol-2-yl]-2-(4-methylpiperazin-1-yl)acetamide]
106 to 108 | CC(C)(O)CN1CCN(CC(=O)Nc2nc(-c3ccco3)c(C(=O)C3CCOCC3)s2)CC1 [Compound 565, N-[4-(2-Furyl)-5-(tetrahydropyran-4-ylcarbonyl)thiazol-2-yl]-2-[4-(2-hydroxy-2-methylpropyl)piperazin-1-yl]acetamide]
155 to 157 | COC1(CN2CCN(CC(=O)Nc3nc(-c4ccco4)c(C(=O)C4CCOCC4)s3)CC2)CC1 [Compound 567, N-[4-(2-Furyl)-5-(tetrahydropyran-4-ylcarbonyl)thiazol-2-yl]-2-{4-[(1-methoxycyclopropyl)methyl]piperazin-1-yl}acetamide]
94 to 96 | CN1CCCN(CC(=O)Nc2nc(-c3ccco3)c(C(=O)C3CCOCC3)s2)CC1 [Compound 576, N-[4-(2-Furyl)-5-(tetrahydropyran-4-ylcarbonyl)thiazol-2-yl]-2-(4-methyl-1,4-diazepan-1-yl)acetamide]
168 to 170 | O=C(CNC12CC3CC(CC(C3)C1)C2)Nc1nc(-c2ccco2)c(C(=O)C2CCOCC2)s1 [Compound 577, N-[4-(2-Furyl)-5-(tetrahydropyran-4-ylcarbonyl)thiazol-2-yl]-2-(adamantan-1-ylamino)acetamide]
176 to 178 | O=C(CNC12CC3CC(CC(O)(C3)C1)C2)Nc1nc(-c2ccco2)c(C(=O)C2CCOCC2)s1 [Compound 578, N-[4-(2-Furyl)-5-(tetrahydropyran-4-ylcarbonyl)thiazol-2-yl]-2-(3-hydroxyadamantan-1-ylamino)acetamide]
152 to 153 | CCOC(=O)Nc1nc(-c2ccco2)c(C(=O)C2CCOCC2)s1 [Compound 581, Ethyl N-[4-(2-furyl)-5-(tetrahydropyran-4-ylcarbonyl)thiazol-2-yl]carbamate]
203 to 210 | O=C(Nc1nc(-c2ccco2)c(C(=O)C2CCSCC2)s1)c1ccncc1 [Compound 589, N-[4-(2-Furyl)-5-(tetrahydrothiopyran-4-ylcarbonyl)thiazol-2-yl]pyridine-4-carboxamide]
274 to 276 | Cc1ccc(-c2nc(NC(=O)c3ccncc3)sc2-c2ccncc2)o1 [Compound 601, N-[4-(5-Methylfuran-2-yl)-5-(4-pyridyl)thiazol-2-yl]pyridine-4-carboxamide]
254 to 257 | Cc1ccoc1-c1nc(NC(=O)c2ccncc2)sc1-c1ccncc1 [Compound 602, N-[4-(3-Methylfuran-2-yl)-5-(4-pyridyl)thiazol-2-yl]pyridine-4-carboxamide]
190 to 192 | O=C(Nc1nc(-c2occc2-c2ccccc2)c(-c2ccncc2)s1)c1ccncc1 [Compound 603, N-[4-(3-Phenylfuran-2-yl)-5-(4-pyridyl)thiazol-2-yl]pyridine-4-carboxamide]
251 to 254 | O=C(Nc1nc(-c2ccoc2)c(-c2ccncc2)s1)c1ccncc1 [Compound 605, N-[4-(3-Furyl)-5-(4-pyridyl)thiazol-2-yl]pyridine-4-carboxamide]
264 to 266 | O=C(Nc1nc(-c2ccoc2)c(C(=O)c2ccccn2)s1)c1ccncc1 [Compound 608, N-[4-(3-Furyl)-5-(pyridin-2-ylcarbonyl)thiazol-2-yl]pyridine-4-carboxamide]
231 to 232 | O=C(Nc1nc(-c2ccoc2)c(C(=O)C2CCOCC2)s1)C1CC1 [Compound 611, N-[4-(3-Furyl)-5-(tetrahydropyran-4-ylcarbonyl)thiazol-2-yl]cyclopropanecarboxamide]
237 to 239 | O=C(Nc1nc(-c2ccoc2)c(C(=O)C2CCOCC2)s1)c1ccc(Cl)nc1 [Compound 612, 2-Chloro-N-[4-(3-furyl)-5-(tetrahydropyran-4-ylcarbonyl)thiazol-2-yl]pyridine-5-carboxamide]
244 to 246 | Cc1cncc(C(=O)Nc2nc(-c3ccoc3)c(C(=O)C3CCOCC3)s2)c1 [Compound 613, N-[4-(3-Furyl)-5-(tetrahydropyran-4-ylcarbonyl)thiazol-2-yl]-5-methylpyridine-3-carboxamide]
217 to 219 | Cc1ccc(C(=O)Nc2nc(-c3ccoc3)c(C(=O)C3CCOCC3)s2)cn1 [Compound 614, N-[4-(3-Furyl)-5-(tetrahydropyran-4-ylcarbonyl)thiazol-2-yl]-2-methylpyridine-5-carboxamide]
202 to 204 | Cc1cc(C(=O)Nc2nc(-c3ccoc3)c(C(=O)C3CCOCC3)s2)ccn1 [Compound 615, N-[4-(3-Furyl)-5-(tetrahydropyran-4-ylcarbonyl)thiazol-2-yl]-2-methylpyridine-4-carboxamide]
202 to 204 | O=C(Nc1nc(-c2ccoc2)c(C(=O)C2CCOCC2)s1)c1ccnc(Cl)c1 [Compound 616, 2-Chloro-N-[4-(3-furyl)-5-(tetrahydropyran-4-ylcarbonyl)thiazol-2-yl]pyridine-4-carboxamide]
195 to 197 | O=C(Cc1cccnc1)Nc1nc(-c2ccoc2)c(C(=O)C2CCOCC2)s1 [Compound 618, N-[4-(3-Furyl)-5-(tetrahydropyran-4-ylcarbonyl)thiazol-2-yl]-2-(3-pyridyl)acetamide]
194 to 196 | COc1cccc(C(=O)Nc2nc(-c3ccoc3)c(C(=O)C3CCOCC3)s2)c1 [Compound 619, N-[4-(3-Furyl)-5-(tetrahydropyran-4-ylcarbonyl)thiazol-2-yl]-3-methoxybenzamide]
231 to 232 | O=C(Nc1nc(-c2ccoc2)c(C(=O)C2CCOCC2)s1)c1ccc(F)cc1 [Compound 620, 4-Fluoro-N-[4-(3-furyl)-5-(tetrahydropyran-4-ylcarbonyl)thiazol-2-yl]benzamide]
232 to 234 | O=C(Nc1nc(-c2ccccn2)c(C(=O)c2ccccn2)s1)c1ccncc1 [Compound 631, N-[4-(2-Pyridyl)-5-(pyridin-2-ylcarbonyl)thiazol-2-yl]pyridine-4-carboxamide]
231 to 235 | O=C(Nc1nc(-c2ccccc2)c(C(=O)c2ccccn2)s1)c1ccncc1 [Compound 634, N-[4-Phenyl-5-(pyridin-2-ylcarbonyl)thiazol-2-yl]pyridine-4-carboxamide]
